This is an account of results in patent US9617253B2, “Molecules having pesticidal utility, and intermediates, compositions, and processes, related thereto” (Dow AgroSciences LLC, priority 2015, dated 2017).

In data set [1] the test system is Yellow Fever Mosquito (Aedes aegypti, AEDSAE). In kind it is in vivo. As to conditions: about 1 day-old larvae, from 4000 ppm DMSO master plate, room temperature, scored after 3 days. The procedure:
Certain molecules disclosed in this document were tested against YFM using procedures described in the following paragraph. In the reporting of the results, the “YFM Rating Table” was used (See Table Section).
Master plates containing 400 μg of a molecule dissolved in 100 μL of dimethyl sulfoxide (DMSO) (equivalent to a 4000 ppm solution) are used. A master plate of assembled molecules contains 15 μL per well. To this plate, 135 μL of a 90:10 water/acetone mixture is added to each well. A robot (Biomek® NXP Laboratory Automation Workstation) is programmed to dispense 15 μL aspirations from the master plate into an empty 96-well shallow plate (“daughter” plate). There are 6 reps (“daughter” plates) created per master. The created “daughter” plates are then immediately infested with YFM larvae.
The day before plates are to be treated, mosquito eggs are placed in Millipore water containing liver powder to begin hatching (4 g into 400 mL). After the “daughter” plates are created using the robot, they are infested with 220 μL of the liver powder/larval mosquito mixture (about 1 day-old larvae). After plates are infested with mosquito larvae, a non-evaporative lid is used to cover the plate to reduce drying. Plates are held at room temperature for 3 days prior to grading. After 3 days, each well is observed and scored based on mortality. The results are indicated in the table entitled “Table ABC: Biological Results” (See Table Section).

Data set [2] deals with Beet Armyworm (Spodoptera exigua, LAPHEG). Nature of the data set: Bioassay on Beet Armyworm (BAW), 128-well diet tray assay. In kind it is in vivo. To be noted: 168 h, second instar BAW larvae, 50 μg/cm^2 on artificial diet, 25° C., five to seven days, average of eight wells, read-out: BAW % Control (or Mortality) rating. The protocol: (§1) Certain molecules disclosed in this document were tested against BAW and CL using procedures described in the following examples. In the reporting of the results, the “BAW & CL Rating Table” was used (See Table Section).
Bioassays on BAW were conducted using a 128-well diet tray assay. One to five second instar BAW larvae were placed in each well (3 mL) of the diet tray that had been previously filled with 1 mL of artificial diet to which 50 μg/cm^2 of the test molecule (dissolved in 50 μL of 90:10 acetone-water mixture) had been applied (to each of eight wells) and then allowed to dry. Trays were covered with a clear self-adhesive cover, vented to allow gas exchange, and held at 25° C., 14:10 light-dark for five to seven days. Percent mortality was recorded for the larvae in each well; activity in the eight wells was then averaged. The results are indicated in the table entitled “Table ABC: Biological Results” (See Table Section).

Data set [3] has as its system Cabbage Looper (Trichoplusia ni, TRIPNI). Nature of the data set: Bioassay on Cabbage Looper (CL), 128-well diet tray assay. In kind it is in vivo. As to conditions: 168 h, second instar CL larvae, 50 μg/cm^2 on artificial diet, 25° C., five to seven days, average of eight wells, read-out: CL % Control (or Mortality) rating. The protocol: as §1
Bioassays on CL were conducted using a 128-well diet tray assay. One to five second instar CL larvae were placed in each well (3 mL) of the diet tray that had been previously filled with 1 mL of artificial diet to which 50 μg/cm^2 of the test molecule (dissolved in 50 μL of 90:10 acetone-water mixture) had been applied (to each of eight wells) and then allowed to dry. Trays were covered with a clear self-adhesive cover, vented to allow gas exchange, and held at 25° C., 14:10 light-dark for five to seven days. Percent mortality was recorded for the larvae in each well; activity in the eight wells was then averaged. The results are indicated in the table entitled “Table ABC: Biological Results” (See Table Section).

Structures are written as SMILES.

Usually mortality stands for the share of the test organisms that died. By melting point is commonly meant the temperature of the solid-liquid transition.

For the compound `CCCc1ccc(C)cc1N1C(=O)CS/C1=N\C(=O)Nc1ccc(COc2ncn(-c3ccc(OC(F)(F)F)cc3)n2)cc1` [F5, (Z)-1-(3-(5-Methyl-2-propylphenyl)-4-oxothiazolidin-2-ylidene)-3-(4-(((1-(4-(trifluoromethoxy)phenyl)-1H-1,2,4-triazol-3-yl)oxy)methyl)phenyl)urea], the “YFM % Control (or Mortality) rating” value in data set [1] was “A (80-100)”. The mortality at 50 µg/cm2 in data set [2] and in data set [3] was 50 to 100% each time.

`COCc1ccc(C)cc1N1C(=O)CS/C1=N\C(=O)Nc1ccc(OCc2ncn(-c3ccc(OC(F)(F)F)cc3)n2)cc1` gave a melting point of 165 to 167 °C.

Regarding `COCc1ccc(C)cc1N1C(=O)CS/C1=N\C(=O)Nc1ccc(OCc2ncn(-c3ccc(OC(F)(F)F)cc3)n2)cc1Cl`, the melting point is 148 to 150 °C.

`Cc1ccc(C(C)C)c(N2C(=O)CS/C2=N\C(=O)Nc2cc(F)c(OCc3ncn(-c4ccc(OC(F)(F)F)cc4)n3)c(F)c2)c1` [F41, (Z)-1-(3,5-Difluoro-4-((1-(4-(trifluoromethoxy)phenyl)-1H-1,2,4-triazol-3-yl)methoxy)phenyl)-3-(3-(2-isopropyl-5-methylphenyl)-4-oxothiazolidin-2-ylidene)urea]: in data set [1], the “YFM % Control (or Mortality) rating” value is on record as “A (80-100)”. Moreover, the mortality at 50 µg/cm2 in data set [2] and in data set [3] was 50 to 100% each time.

`COCc1ccc(C)cc1N1C(=O)CS/C1=N\C(=O)Nc1ccc(COc2ncn(-c3ccc(OC(F)(F)F)cc3)n2)c(F)c1` [F9, (Z)-1-(3-Fluoro-4-(((1-(4-(trifluoromethoxy)phenyl)-1H-1,2,4-triazol-3-yl)oxy)methyl)phenyl)-3-(3-(2-(methoxymethyl)-5-methylphenyl)-4-oxothiazolidin-2-ylidene)urea]: in data set [1], the “YFM % Control (or Mortality) rating” value is “A (80-100)”. Besides, the mortality at 50 µg/cm2 in data set [2] and in data set [3] was 50 to 100% each time.

Consider `COCc1ccc(C)cc1N1C(=O)CS/C1=N\C(=O)Nc1ccc(OCc2ncn(-c3ccc(OC(F)(F)F)cc3)n2)cc1F`, for which the melting point is 132 to 134 °C.

In turn, `CCCc1ccc(C)cc1N1C(=O)CS/C1=N\C(=O)Nc1c(F)cc(OCc2ncn(-c3ccc(OC(F)(F)F)cc3)n2)cc1F` had a melting point of 169 to 172 °C.

Consider `COCc1ccc(C)cc1N1C(=O)CS/C1=N\C(=O)Nc1ccc(COc2ncn(-c3ccc(OC(F)(F)F)cc3)n2)cc1` [F8, (Z)-1-(3-(2-(Methoxymethyl)-5-methylphenyl)-4-oxothiazolidin-2-ylidene)-3-(4-(((1-(4-(trifluoromethoxy)phenyl)-1H-1,2,4-triazol-3-yl)oxy)methyl)phenyl)urea], for which the “YFM % Control (or Mortality) rating” value in data set [1] is “A (80-100)”. Further, the mortality at 50 µg/cm2 in data set [2] and in data set [3] was 50 to 100% throughout.

`COC(C)c1ccc(C)cc1N1C(=O)CS/C1=N\C(=O)Nc1c(F)cc(OCc2ncn(-c3ccc(OC(F)(F)F)cc3)n2)cc1F` (stereo not shown) came in with a melting point of 147 to 152 °C.

`CCCc1ccc(C)cc1N1C(=O)CS/C1=N\C(=O)Nc1ccc(OCc2ncn(-c3ccc(OC(F)(F)F)cc3)n2)cc1` [F17, (Z)-1-(3-(5-Methyl-2-propylphenyl)-4-oxothiazolidin-2-ylidene)-3-(4-((1-(4-(trifluoromethoxy)phenyl)-1H-1,2,4-triazol-3-yl)methoxy)phenyl)urea]: the “YFM % Control (or Mortality) rating” value in data set [1] is “A (80-100)”. In addition, the mortality at 50 µg/cm2 in data set [2] and in data set [3] was 50 to 100% in each case.

Turning to `Cc1ccc(C(C)C)c(N2C(=O)CS/C2=N\C(=O)Nc2ccc(COc3ncn(-c4ccc(OC(F)(F)F)cc4)n3)cc2F)c1` [F2, (Z)-1-(2-Fluoro-4-(((1-(4-(trifluoromethoxy)phenyl)-1H-1,2,4-triazol-3-yl)oxy)methyl)phenyl)-3-(3-(2-isopropyl-5-methylphenyl)-4-oxothiazolidin-2-ylidene)urea], the mortality at 50 µg/cm2 in data set [2] and in data set [3] was 50 to 100% each time.
